Source: PMC12671080, “Antimicrobial activities of quaternary phosphonium-type small molecular antibacterial materials against methicillin-resistant Staphylococcus aureus” (Microbiology Spectrum, 2025)
Read-outs that look alike come from different tables or passages of the source. Each block holds one compound with its values, some of them ahead of it.

Columns and labels:
MRSA [1] = test: Protein leakage assay (Bradford); format: cell-based, Staphylococcus aureus; details: 32 µg/mL (2 × MIC), 24 h
Experimental: The quantitative detection of protein leakage of bacteria was carried out by protein leakage assay using a Bradford Protein Assay Kit (P0006; Beyotime, Nantong, China). […] The bacterial solution without [PTPP]·I was used as a control. The mixture was incubated in a shaker at 37°C for 24 h and then centrifuged at 10,000 rpm at 4°C for 10 min. The supernatant was immediately collected, and protein detection reagent was added to determine the optical density (OD 600) using a Microplate Reader (Thermo Fisher Scientific, Multiskan GO) and finally converted to protein concentration values based on the standard curve.

MRSA [2] = test: Reactive oxygen species assay (DCFH-DA); format: cell-based, Staphylococcus aureus; details: 0.5 h
Experimental: The level of bacterial ROS induced by [PTPP]·I was detected by DCFH-DA assay (Reactive Oxygen Species Assay Kit, S0033S, Beyotime), as previously reported ([18]). Briefly, MRSA (1 × 10^8 CFU/mL) was inoculated with 10 µM of DCFH-DA in a centrifuge tube at 37°C for 30 min for probe loading. […] The bacterial solution without [PTPP]·I was included to use as a control. The samples were washed three times with sterile saline solution (0.9% NaCl). Finally, the level of bacterial total ROS was measured as the relative fluorescence intensity of the probes, which was detected in a Multi-mode detection platform (Molecular Devices, SpectraMax i3x) in fluorescence mode with excitation at 488 nm and emission at 525 nm.

MRSA [3] = test: SEM of bacterial morphology and bacterial biofilm; format: cell-based, Staphylococcus aureus; details: 24 h
Experimental: Scanning electron microscopy was used to observe bacterial morphology and bacterial biofilm formation. […] Samples were then washed with PBS and dehydrated in a graded ethanol series (30%, 50%, 70%, 80%, 90%, 95%, and 100%). After lyophilization and gold spraying, the MRSA cells were visualized by SEM (SU8100, Hitachi, Tokyo, Japan). Bacterial biofilms were subjected to SEM as previously reported with slight modifications ([31]). Cell crawling pieces were incubated in 1 mL of MRSA solution (1 × 10^6 CFU/mL) in a 24-well plate. […] After 24 h of incubation at 37°C, the samples were processed as described above and the MRSA biofilms on the cell crawling pieces were observed by scanning electron microscopy.

MRSA biofilm [4] = test: Crystal violet staining of biofilm formation; format: cell-based, Staphylococcus aureus; details: 24 h
Experimental: Crystal violet staining was performed by the method reported previously to measure the anti-biofilm effect of [PTPP]·I ([32]). […] A parallel study was also performed with LB broth as a blank control and the MRSA suspension was cultured in an empty well as a positive control. After incubation, the non-adhered bacteria were removed by gently washing with PBS at least three times, and the adherent biofilm was fixed with methanol for 15 min and stained with 0.1% (wt/vol) crystal violet for another 15 min. Then the excess crystal violet was removed by repeatedly washing with PBS until the blank control wells were colorless. Finally, crystal violet bound to the biofilm was dissolved in 500 µL 95% ethanol and added into 96-well plates to measure the absorbance at 595 nm using a Microplate Reader (Thermo Fisher Scientific, Waltham, MA, USA).

MRSA biofilm [5] = test: Resazurin staining, metabolic activity of bacteria within biofilms; format: cell-based, Staphylococcus aureus; details: 24 h
Experimental: The metabolic activity of bacteria within biofilms was tested using resazurin (Sigma Aldrich, St. Louis, MO, USA), as previous report with slightly modified ([33]). Bacterial suspensions were exposed to graded concentrations (range 4–32 μg/mL) of [PTPP]·I in MHB broth for 24 h at 37°C. After incubation, the wells were washed three times with PBS and 0.01% final concentration of resazurin (Sigma Aldrich, St. Louis, MO, USA) was added, followed by an incubation for 1 h. Finally, the absorbance was detected in a Multi-mode detection platform (Molecular Devices, SpectraMax i3x) in fluorescence mode with excitation at 570 nm and emission at 600 nm. Bacterial suspensions without [PTPP]·I were set as a positive control, and pure MHB broth was set as a blank control, which were taken as 100% and 0% metabolic activity, respectively. Metabolic activity was calculated according to the following formula: metabolic activity (%) = (ΔAbs of sample − ΔAbs of blank control)/(ΔAbs of positive control − ΔAbs of blank control); ΔAbs = absorbance at 570 nm − absorbance at 600 nm.

MRSA [6] = test: Agar diffusion test; format: cell-based, Staphylococcus aureus; details: 10 µL of 512 µg/mL on 6.0 mm disc, overnight 37°C
Experimental: Bacterial suspensions (1.5 × 10^8 CFU/mL) were spread onto Mueller-Hinton (M-H) agar plates using sterile cotton swabs to form a uniform carpet. A 10 µL solution of each of the five nanomaterials at a concentration of 512 µg/mL, along with PBS, was carefully applied to the surface of filter paper discs (6.0 mm in diameter), which were then placed onto M-H agar plates and incubated overnight at 37°C. Inhibition zones appeared as transparent halos on the agar surface.

MRSA [7] = test: Time-kill kinetics assay (colony counting); format: cell-based, Staphylococcus aureus
Experimental: The bactericidal kinetics assay was carried out with a few minor modifications as previously stated to reveal the antimicrobial effectiveness of [PTPP]·I over time ([30]). […] Bacteria were sampled every 1 h from 0 h to 6 h, diluted in a gradient, and incubated in Luria-Bertani (LB) plates at 37°C for 24 h. Finally, plates with around 30 to 300 colonies were counted and CFU/mL for each time point was calculated to construct time-kill curves. After 3 h of treatment with different concentrations of [PTPP]·I, the bacterial solution was put into PBS for several consecutive 10-fold dilutions, and 100 µL of the mixture was uniformly spread on LB agar plates and then allowed to dry for a little while. The LB agar plates were placed in a constant-temperature incubator at 37°C for 24 h, and then the colonies on the LB agar plates were counted and photographed to observe the changes in the morphology and size of MRSA colonies.

[8] = test system: Escherichia coli (E. coli, ATCC 25922); test: MIC test, modified broth microdilution; format: cell-based; details: read-out: Minimal inhibitory concentration (MIC) against E. coli
Experimental: (§1) All bacteria cells were first pre-grown overnight on blood agar plates at 37°C in a bacteriological incubator. Next, a single colony was transferred into fresh Muller Hinton broth (MHB) medium and harvested by centrifugation during the exponential growth phase, before being resuspended in sterile 0.9% physiological saline. Finally, bacterial cells were adjusted to the 0.5 McFarland standard (1.5 × 10^8 CFU/mL), and the solution was diluted in MHB to the predetermined concentrations.
(§2) MICs of all materials against MRSA, E. coli, and P. aeruginosa strains were determined using a modified broth microdilution method ([28]). Briefly, log-phase cultures (1.0 × 10⁶ CFU/mL) of each strain were inoculated into 96-well microtiter plates preloaded with serially diluted test compounds.

MRSA (ATCC 43300) = test: MIC test, modified broth microdilution; format: cell-based; details: Staphylococcus aureus, 24 h
Experimental: as §1, §2

L929 cells = test: Cytotoxicity assay (CCK-8); details: at the concentration of MIC, 24 h, CCK-8
Experimental: (§3) The cytotoxicity of the nanocomposite was evaluated by CCK-8 assay using a commercial kit (CK04; Dojindo, Japan). […] Cell viability was calculated according to the following formula: cell viability (%) = (Ae − Ab)/(Ac − Ab) × 100% (Ab:OD of blank wells at 450 nm, Ac:OD of control wells at 450 nm, Ae:OD of experimental wells at 450 nm).

[9] = Cytotoxicity assay (CCK-8); details: mouse
Experimental: as §3

MRSA [10] = test: Bacterial growth curve study (OD600); format: cell-based, Staphylococcus aureus
Experimental: Bacterial growth curve of [PTPP]·I against MRSA cells was determined by the method reported previously ([29]). […] The bacterial solution without [PTPP]·I was used as a positive control. OD values were continuously measured for 36 h at hourly intervals to construct bacterial growth curves.

[11] = test system: Pseudomonas aeruginosa (P. aeruginosa, ATCC 27853); test: MIC test, modified broth microdilution; format: cell-based; details: ATCC27853, 24 h
Experimental: as §1, §2

[12] = ATCC25922, broth microdilution, 37°C, 24 h
[13] = broth microdilution, 37°C, read-out: Minimal inhibitory concentration (MIC) against MRSA
[14] = L929 cells, Cell viability of L929 cells, at the concentration of MIC, 24 h, CCK-8

Structure (SMILES): C[P+](c1ccccc1)(c1ccccc1)c1ccccc1 [[MTPP]·I, methyl-triphenyl-phosphonium iodide]
MIC ([8]; ATCC25922, 24 h): ≤ 512 µg/mL | MIC (MRSA (ATCC 43300); read-out: Minimal inhibitory concentration (MIC) against MRSA, broth microdilution, 37°C, 24 h): 128 µg/mL | MIC ([11]; read-out: Minimal inhibitory concentration (MIC) against P. aeruginosa, broth microdilution, 37°C, 24 h): 8000 µg/mL | viability at 24 h [9]: ~90%

Structure (SMILES): CC[P+](c1ccccc1)(c1ccccc1)c1ccccc1 [[ETPP]·I, ethyl-triphenyl-phosphonium iodide]
MIC [8, 12]: ≤ 512 µg/mL | MIC (MRSA (ATCC 43300); [13]): ≤ 64 µg/mL | MIC ([11]; broth microdilution, 37°C, 24 h, read-out: Minimal inhibitory concentration (MIC) against P. aeruginosa): 8000 µg/mL | viability at 24 h [9, 14]: ~90%

The next lines start with results.

MIC [8, 12]: ≤ 512 µg/mL | MIC (MRSA (ATCC 43300); [13]): 16 µg/mL
Structure (SMILES): CCCCC[P+](c1ccccc1)(c1ccccc1)c1ccccc1 [[PTPP]·I, n-pentyl-triphenyl-phosphonium iodide]
Protein leakage relative to control group (MRSA [1]): about 2.6 times | ROS level elevation vs the control group (MRSA [2]; 1 × MIC): 20% | ROS level elevation vs the control group (MRSA [2]; 2 × MIC): 30% | ROS level elevation vs the control group (MRSA [2]; 4 × MIC): 141% | Biofilm on cell crawling pieces by SEM (MRSA [3]; 16 µg/ml (1 × MIC)): no biofilm but only the residue of bacterial disruption | Bacterial morphology by SEM (MRSA [3]; 32 µg/mL (2 × MIC)): membranes/walls of MRSA cells became rough and concave, holes appeared | Reduction of biofilm biomass (MRSA biofilm [4]; 1/2 × MIC): 35.4% | Reduction of biofilm biomass (biofilm inhibition rate) (MRSA biofilm [4]; 1 × MIC): 96.6% | Metabolic activity of biofilm bacteria, of positive control (MRSA biofilm [5]; 1/2 × MIC): more than 50% | Metabolic activity of intra-film bacteria, of positive control (MRSA biofilm [5]; 1 × MIC): 1% | Inhibition halos against MRSA (MRSA [6]): obvious inhibition halos | Time to achieve survival rate less than 1% (MRSA [7]; 1 × MIC): 6 h | Reduction of viable count (MRSA [7]; 1 × MIC, within 1 h): approximately 1 log10 CFU/mL | Survival rate (MRSA [7]; 4 × MIC for 2 h): less than 1% | Cell viability of L929 cells (L929 cells): 97% | viability at 24 h [9, 14]: > 97% | Bacterial growth (OD600) (MRSA [10]; 2 µg/mL (1/8 × MIC) to 16 µg/mL (1 × MIC)): significantly inhibited | Lag phase of MRSA growth (MRSA [10]; at 1/2 × MIC): up to 10 h

MIC [8, 12]: ≤ 512 µg/mL | MIC (MRSA (ATCC 43300); [13]): ≤ 32 µg/mL
Structure (SMILES): CCCC[P+](c1ccccc1)(c1ccccc1)c1ccccc1 [[BTPP]·I, n-butyl-triphenyl-phosphonium iodide]
viability at 24 h [9, 14]: ~95%

MIC [8, 12]: ≤ 512 µg/mL | MIC (MRSA (ATCC 43300); [13]): ≤ 64 µg/mL
Structure (SMILES): CC(C)[P+](c1ccccc1)(c1ccccc1)c1ccccc1 [[ITPP]·I, i-propyl-triphenyl-phosphonium iodide]
viability at 24 h [9, 14]: ~95%
